Reference: PubChem BioAssay AID1421 (Emory University Molecular Libraries Screening Center, 2008)
Active and inactive are the calls of the source. How the calls were made is not given here.

Target: Prostaglandin E2 receptor EP2 subtype (Homo sapiens) (UniProt P43116)
Experiment: EP2 receptor modulators, dose response, cell-based, human EP2, PGE2 EC50 shift (AID 1421)
Conditions: EP2-expressing cells, PGE2 EC50 shift by compound

Chain of Prostaglandin E2 receptor EP2 subtype (Homo sapiens) (P43116 whole entry, looked up): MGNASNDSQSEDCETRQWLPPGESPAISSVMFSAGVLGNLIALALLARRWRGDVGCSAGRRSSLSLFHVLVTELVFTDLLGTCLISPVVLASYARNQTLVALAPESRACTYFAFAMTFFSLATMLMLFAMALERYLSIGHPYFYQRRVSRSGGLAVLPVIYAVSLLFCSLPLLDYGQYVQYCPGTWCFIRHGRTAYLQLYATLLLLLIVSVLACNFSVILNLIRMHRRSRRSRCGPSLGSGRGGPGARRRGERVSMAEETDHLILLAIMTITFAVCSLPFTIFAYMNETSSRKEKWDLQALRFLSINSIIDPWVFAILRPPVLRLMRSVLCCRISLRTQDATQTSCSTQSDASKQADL

Compound | outcome
CC(C)Oc1nc(-c2ccccc2O)nc2ccccc12 | active
CCOC(=O)c1c(NC(=O)c2ccco2)sc2c1CCCCC2 | active
CCCSc1ncnc2sc(C)c(C)c12 | active
CC(C)Sc1cc(N2CCOCC2)nc(-c2ccc(Cl)cc2)n1 | active
Cc1sc(NC(=O)c2ccccc2F)c(CN2CCCCC2)c1C | active
CCOC(=O)c1cnc(SC)nc1Sc1ccccc1Cl | active
Cn1cccc1/C=C1\CC(C(C)(C)C)C/C(=C\c2cccn2C)C1=O (stereo not given) | active
CCSc1cc(N2CCOCC2)nc(-c2ccc(Cl)cc2)n1 | active
CCOC(=O)C1CCN(c2c(-c3ccccc3)c3cc(Cl)ccc3[nH]c2=O)CC1 | active
CCCn1c2ccccc2c2nc3ccccc3nc21 | active

Same assay, conditions: EP2-expressing cells, PGE2 EC50 shift by compound; measured here: PGE2 EC50 at 6.7 uM compound

Compound | PGE2 EC50 with compound [nM]
CC(C)Oc1nc(-c2ccccc2O)nc2ccccc12 | 1.01
COC(=O)c1sccc1NC(=O)c1cc2c(s1)CCCC2 | 1.01
NC(=O)CSc1nnc(-c2cccc(S(=O)(=O)N3CCOCC3)c2)n1C1CCCCCC1 | 1.37
S=c1[nH]nc(CSc2nc3ccccc3s2)n1Cc1ccccc1 | 0.72
CCOC(=O)c1c(NC(=O)c2ccco2)sc2c1CCCCC2 | 0.87
COc1ccc(-c2nc3c(c(=O)[nH]c(=O)n3Cc3ccccc3)n2Cc2ccccc2)cc1 | 0.55
Cc1cc(C)n(-c2nc(C)nc3c2cnn3-c2ccccc2)n1 | 1.43
CCN(CC)S(=O)(=O)c1c(OC)cc(C)c(Cl)c1C | 2.56
COc1cc2ccccc2cc1C(=O)NC(=S)Nc1cc(C(=O)O)ccc1C | 3.08
COc1ccccc1-c1nnc2sc(-c3cc4ccccc4o3)nn12 | 6.03
COc1ccc(C(=O)NCCCN2CCOCC2)cc1OC | 0.99
Cc1ccnc(NS(=O)(=O)c2cccs2)c1 | 1.8
O=C(Nc1ccccc1Oc1ccccc1)c1ccccc1F | 1.07
CC1CCc2cc(F)cc3c(O)c(C(=O)NCc4ccco4)c(=O)n1c23 (stereo not given) | 0.56
S=c1[nH]nc(C2CCCCC2)n1Cc1ccccc1 | 1.02
CCC(c1nnnn1Cc1ccco1)N(Cc1cc2cc(C)cc(C)c2[nH]c1=O)CC1CCCO1 (stereo not given) | 1.56
CCOC(=O)C1=C(C)OC(N)=C(C#N)C1c1cc(C)sc1C (stereo not given) | 1.3
C=CCC(=O)OCCCCCCOc1ccc(C(=O)O)cc1 | 0.58
Cc1ccccc1Nc1c(-c2ccccn2)nc2ccccn12 | 1.55
O=C(Nc1ccccc1)c1nn(-c2cccc(C(F)(F)F)c2)ccc1=O | 2.72
CCOC(=O)c1c(-c2ccccc2)oc2ccc(OC)cc12 | 1.04
COC(=O)c1sc2[nH]c(=S)n(N)c(=O)c2c1C | 1.06
O=C(c1ccccc1O)N1N=C(c2ccccc2)CC1(O)C(F)(F)F (stereo not given) | 1.48
CCN(CC)C(=O)Cn1cc(C(=O)C(=O)NCc2ccco2)c2ccccc21 | 1.55
Cc1cc2cc3c(cc2nc1SCC(=O)OC(C)C)OCO3 | 0.8
O=C(CSc1nnc(COc2ccccc2)n1-c1ccccc1)c1ccccc1 | 1.19
CCCCc1n[nH]c(=S)n1Cc1ccc(Cl)cc1 | 1.57

Compound | PGE2 EC50 with compound [nM]
COc1ccc(N2CCN(c3nc4c(c(=O)n(C)c(=O)n4C)n3Cc3ccccc3)CC2)cc1 | 0.92
COc1ccccc1/C=N/N(C(C)=O)c1nc(-c2ccc(F)cc2)cs1 | 1.1
COc1ccc(C2CC(c3cccs3)=NN2C(=O)c2ccc(Br)o2)cc1 (stereo not given) | 1.25
CCc1ccc2[nH]c(=O)c(C(c3nnnn3CC3CCCO3)N3CCCc4ccccc43)cc2c1 (stereo not given) | 0.99
COc1cccc2[nH]c3c(N4CCCCC4)ncnc3c12 | 0.6
Cc1cc(SCCC(=O)O)nc2c(C)cccc12 | 1.01
CCCC(=O)C1=C(O)C(C(=O)OC)C(C)(C)CC1=Nc1cccc2ccccc12 (stereo not given) | 1.53
CCOC(=O)c1c(C=O)c(C)n(Cc2ccc(C)cc2)c1C | 1.31
OCCCNc1nc(-c2ccc(Br)cc2)nnc1-c1ccc(Cl)cc1 | 1.42
O=C(O)c1cc2cc(F)ccc2[nH]1 | 0.93
CCN(Cc1ccccc1)C(c1cc2cc(C)cc(C)c2[nH]c1=O)c1nnnn1CCOC (stereo not given) | 1.28
CC(C)(C)c1nc2ccccc2c(=O)n1N1C(=O)c2ccccc2C1=O | 0.82
CCCSc1ncnc2sc(C)c(C)c12 | 0.89
CC(C)Sc1cc(N2CCOCC2)nc(-c2ccc(Cl)cc2)n1 | 1.02
CCN(CC)C(=O)c1nn(-c2ccccc2)c2c1C1CCC2(C)C1(C)C (stereo not given) | 1.24
CC(C)CCn1c(-c2nonc2N)nc2ccccc21 | 1.49
COC(=O)c1ccccc1NC(=O)c1cnn2c(C(F)F)cc(C3CC3)nc12 | 1.17
O=C(O)c1ccc(C(=O)O)c(C(=O)Nc2ccc3c(c2)Cc2ccccc2-3)c1 | 2.77
Cc1sc(NC(=O)c2ccccc2F)c(CN2CCCCC2)c1C | 1.09
CCOC(=O)c1cnc(SC)nc1Sc1ccccc1Cl | 1.07
CSc1nc(Sc2ccccc2Cl)c2ccccc2n1 | 0.7
O=C(O)c1cc(C(=O)O)cc(N2C(=O)c3ccccc3C2=O)c1 | 0.83
CSc1nnc(-c2ccc(F)cc2)o1 | 1.71
Cc1nc(NC(C)c2ccccc2)c2c3c(sc2n1)CCC3 (stereo not given) | 0.78
O=C(c1ccco1)N1N=C(c2ccc(Br)cc2)CC1(O)C(F)(F)F (stereo not given) | 0.84
COc1ccc(OC)c(/C=C/C(=O)N2CCCc3ccccc32)c1 | 1.13
Cn1nc(C(F)(F)F)c(/C=N/OC(=O)c2ccccc2)c1Sc1ccc(Cl)cc1 | 1.31

Compound | PGE2 EC50 with compound [nM]
c1ccc(-c2cc(-c3ccncc3)nc3ccc4ccccc4c23)cc1 | 0.69
O=C(COc1ccccc1)Nc1ccccc1Oc1ccccc1 | 1.41
CSc1nc2nccc(-c3ccc(-c4ccccc4)cc3)n2n1 | 0.87
CCOP(=O)(OCC)c1nc(-c2ccc(Cl)cc2)oc1NCc1ccccc1 | 0.73
CCOc1ccccc1Cn1c(=O)oc2ccc(C)cc21 | 1.09
Brc1cccc(-c2nnc(SCc3ccon3)n2-c2ccccc2)c1 | 1.06
Cc1nn(Cc2c(Cl)cccc2Cl)c(C)c1C(=O)NCc1ccc(C)n1C | 1.18
Cn1cccc1/C=C1\CC(C(C)(C)C)C/C(=C\c2cccn2C)C1=O (stereo not given) | 1.44
CCCOP(=O)(OCCC)C(Nc1cccc(C(F)(F)F)c1)c1ccc(C)cc1 (stereo not given) | 1.37
C=CCn1c(SCc2c(C)noc2C)nc2sc(C)c(C)c2c1=O | 0.62
CC1=CC2C(CC1=O)C(C)=CCC2C(C)C (stereo not given) | 0.86
COC(=O)c1c(NC(NC(=O)C(C)C)C(Cl)(Cl)Cl)sc2c1CCCC2 (stereo not given) | 1
CCCC/C(=N\NC(=O)c1ccc(Br)o1)c1ccccc1 | 2.49
CCCc1cc(=O)[nH]c(SCC(=O)N2CCC(C(=O)OCC)CC2)n1 | 0.64
Cc1noc(C)c1CSc1ncnc2sc(C)c(C)c12 | 1.38
Cc1ccc(S(=O)(=O)Nc2ccc(Cl)cc2C(=O)c2ccc(F)cc2)cc1 | 0.97
CCCCn1c(=O)c(C(=O)NCc2ccco2)c(O)c2ccccc21 | 2.62
CCC1(CC)Cc2ccccc2-c2nc(NCCO)[nH]c(=O)c21 | 1.25
COc1ccc(/C=C(\C#N)C(N)=O)cc1OC | 1.31
Clc1ccc(-c2ccc(/C=N/Nc3cc(N4CCOCC4)nc(N4CCOCC4)n3)o2)cc1 | 2.85
CSc1nc(-c2ccc(Cl)cc2)nn1S(=O)(=O)c1ccccc1 | 1.03
CCCCn1c(C)cc(C)c(S(=O)(=O)c2ccccc2C)c1=O | 1.08
CCc1ccccc1NC(=O)/C(=C/c1ccco1)c1ccccc1 | 1.58
CCNc1nc(NCC)nc(SCCOc2ccc(C)cc2)n1 | 0.7
CN(Cc1cc(Br)cc(Br)c1O)Cc1c(O)ccc2ccccc12 | 1.22
COc1ccc(-c2cc(C(F)(F)F)nc(NCc3ccco3)n2)cc1OC | 0.53
CC(Sc1nc2ccccc2n1C)C(=O)NC(c1ccccc1)c1ccccc1 (stereo not given) | 1.24

Compound | PGE2 EC50 with compound [nM]
Cc1nnc(SCC(=O)NC2CCCCC2)n1C1CCCCC1 | 2.7
O=c1cc2c(nn1Cc1c(Cl)cccc1Cl)-c1ccccc1CC2 | 0.79
CCSc1cc(N2CCOCC2)nc(-c2ccc(Cl)cc2)n1 | 0.69
O=c1[nH]c(N/N=C/c2ccccc2)nc2ccccc12 | 0.74
COc1cccc(OCC(=O)Nc2ccccc2-c2ccccc2)c1 | 1.17
CC(C)(C)C1CCc2onc(C(=O)Nc3cccnc3)c2C1 (stereo not given) | 1.31
CCn1c(=S)[nH]c2c(c1=O)C(C)(C)Cc1ccccc1-2 | 0.76
CC1CCN(c2nc3c(c(=O)[nH]c(=O)n3C)n2CCCc2ccccc2)CC1 | 1.05
Cc1onc(-c2ccccc2Cl)c1-c1nc(-c2ccncc2)no1 | 0.83
CCCCN1C=C(C(=O)OC)C(c2ccccc2Cl)C(C(=O)OC)=C1 | 2.72
COC(=O)c1c(NC(=O)Cc2cccs2)sc2c1CCCC2 | 1.02
c1ccc(CCc2cccnc2)nc1 | 1.62
Cc1ccc(-c2cc3nn(-c4ccccc4)c(N)c3c(=O)o2)cc1 | 1.87
COc1ccc(OC)c(-c2cnc(OC(C)(C)C)nc2OC(C)(C)C)c1 | 1.35
C=CCSc1nc(Oc2ccccc2)c2sccc2n1 | 2.43
CC(=O)N1N=C2/C(=C/c3ccccc3)CCCC2C1c1ccccc1 (stereo not given) | 1.25
CC1=C/C(=C(/c2ccc(O)c(C)c2)c2ccccc2C(=O)O)C=CC1=O | 0.96
NC(N)=Nc1nc(CSCC/C(N)=N/S(N)(=O)=O)cs1 | 0.78
CCOC(=O)c1c(NC(=O)c2ccc(N3C(=O)[C@@H]4[C@H](C3=O)[C@H]3C=C[C@@H]4C3)cc2)sc2c1CC(C)CC2 (stereo not given in full) | 1.22
CCOC(=O)c1c(NC(=O)c2ccncc2)sc(C)c1C | 1
COc1ccc(-n2c(COc3ccc(Cl)cc3)nnc2SCc2ccc(C#N)cc2)cc1 | 1.22
CCOC(=O)c1sc(NC(=O)CCN2CC(C)OC(C)C2)c(C(=O)OCC)c1C (stereo not given) | 1.11
CCOC(=O)C1CCN(c2c(-c3ccccc3)c3cc(Cl)ccc3[nH]c2=O)CC1 | 1.03
CCCn1c2ccccc2c2nc3ccccc3nc21 | 1.21
